From ChEMBL document CHEMBL4145621, “4-Substituted Benzenesulfonamides Incorporating Bi/Tricyclic Moieties Act as Potent and Isoform-Selective Carbonic Anhydrase II/IX Inhibitors” (J Med Chem, 2018)

Assays:
[1] = molecular target: Carbonic anhydrase 9 (Homo sapiens, UniProt Q16790); test: Inhibition of recombinant human CA9 preincubated for 15 mins by phenol red dye-based stopped-flow CO2 hydration assay
[2] = molecular target: Carbonic anhydrase 1 (Homo sapiens, UniProt P00915); test: Inhibition of recombinant human cytosolic CA1 preincubated for 15 mins by phenol red dye-based stopped-flow CO2 hydration assay
Chain of Carbonic anhydrase 1 (P00915 whole entry): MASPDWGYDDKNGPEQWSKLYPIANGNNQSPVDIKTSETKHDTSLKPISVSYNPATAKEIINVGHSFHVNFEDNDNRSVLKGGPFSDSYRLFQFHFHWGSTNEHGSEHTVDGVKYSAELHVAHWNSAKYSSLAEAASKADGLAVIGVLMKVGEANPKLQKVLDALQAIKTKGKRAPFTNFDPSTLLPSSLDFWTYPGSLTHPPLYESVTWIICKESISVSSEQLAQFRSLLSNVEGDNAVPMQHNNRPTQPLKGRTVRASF

Row | SMILES | Ki [1] | Ki [2]
1 | CC1(C)CC(=O)c2cnc(Nc3ccc(S(N)(=O)=O)cc3)nc2C1 | 0.89 nM | –
2 | NS(=O)(=O)c1ccc(-n2ncc3c2-c2cnc(-c4ccccc4)nc2CC3)cc1 | 7.3 nM | > 10000 nM
3 | NS(=O)(=O)c1ccc(-n2ncc3c2CCCC3=O)cc1 | 5.2 nM | –
4 | NS(=O)(=O)c1ccc(-n2ncc3c2CC(c2ccccc2)CC3=O)cc1 (stereo not given) | 0.73 nM | –
5 | Cc1ncc2c(n1)CCc1cnn(-c3ccc(S(N)(=O)=O)cc3)c1-2 | 7 nM | –
6 | NS(=O)(=O)c1ccc(Nc2ncc3c(n2)CC(c2ccccc2)CC3=O)cc1 (stereo not given) | 0.79 nM | –
7 | NS(=O)(=O)c1ccc(-n2ncc3c2-c2cncnc2CC3)cc1 | 0.57 nM | –
8 | CC1(C)CC(=O)c2cnn(-c3ccc(S(N)(=O)=O)cc3)c2C1 | 0.88 nM | –
9 | NS(=O)(=O)c1ccc(Nc2ncc3c(n2)CCCC3=O)cc1 | 0.55 nM | –
